Here are results for 50 substances from paper PMC6333900, “Discovery of peptide ligands targeting a specific ubiquitin-like domain–binding site in the deubiquitinase USP11” (The Journal of Biological Chemistry, 2018).

For test [1], the system named is USP11_DU (USP11 N-terminal DUSP–UBL domains). The test can be described thus: Next-generation phage display enrichment (two-proportion Z test, round 3 of panning). Format: binding, human. To be noted: enrichment on USP11_DU vs unrelated His-tagged control protein (flagellin fragment), after three rounds of panning, gpVIII phage-displayed nonapeptide. An excerpt:
An NGPD approach was applied to the identification of USP11 ligands as schematically depicted in Fig. 1B. A randomized linear peptide library fused to the gpVIII protein was used to isolate peptides that interact with the USP11 N-terminal DU domains (DUSP and UBL domains in tandem; USP11_DU; Fig. 1A). After three biopanning rounds, phage ssDNA was extracted and purified, and peptide sequences were amplified and deep-sequenced. […] A graphical representation of the residue frequency within the motifs as computed by the Multiple EM for Motif Elicitation (MEME) algorithm ([33]) is shown in Fig. 1C. The thermodynamic binding parameters of synthetic peptides representative of both motifs, including the N-terminal phage protein sequence (AEGEF), AEGEFYKLKIRTPQ (referred to as FYLIR peptide) and AEGEFLELLKASRW (referred to as LXLL peptide), were determined by isothermal titration calorimetry (ITC). Peptides harboring either motif bound USP11_DU with dissociation constants of about 10 μM (8.86 ± 1.13 μM for AEGEFYKLKIRTPQ and 6.92 ± 2.25 μM for AEGEFLELLKASRW; Fig. 1D).
The peptide phage display library used for biopanning experiments (kindly provided by Professor Franco Felici, University of Molise, Italy; designated PC89VIII) is based on the PC89 phagemid vector ([50]) with a nonapeptide inserted at the N terminus of the phage major coat protein pVIII and a reported diversity of ∼10^7. The library was transformed into Escherichia coli TG1 supE thi-1 Δ(lac-proAB) Δ(mcrB-hsdSM)5(rK-mK) [F′traD36 proAB lacIqZΔM15], which was the strain used for all manipulations and phage rescue. Libraries were grown to mid-log phase (OD600 ∼0.6), superinfected with M13KO7 helper phage (Pharmacia LKB), and incubated overnight at 30 °C (250 rpm) to produce phage particles. Phage was harvested, and PEG was precipitated only for the first panning round. For all subsequent selection rounds (three in total), supernatant phage was used directly. Biopanning was carried out once, as described previously ([51]), and proteins were immobilized on cobalt beads (Dynabeads) (solution phase panning). A total of 100 μg of USP11_DU was immobilized for each round. In parallel, the phage isolated at each round against USP11_DU was also bound against an unrelated His-tagged control protein under the same conditions. This control protein was a fragment of flagellin, a virulence factor from E. coli O157:H7, amino acid residues 164–495, and the protein was used as it is unrelated to the target proteins and carried a C-terminal His tag. Bound phage were washed 10–20 times with PBS (10 mM phosphate buffer, pH 7.2–7.4, with 150 mM NaCl) plus 0.1% (v/v) Tween (PBST) and then PBS. Bound phage were eluted from the beads with 100 mM triethylamine and neutralized in 1 M Tris, pH 7.4. Half of the eluted phage was used for infection of TG1 cells, which were plated and used to make glycerol stocks.
The ssDNA of eluted phage for round 3 of selection against the USP11_DU target and the control protein was extracted and purified using the QIAprep Spin M13 kit. Subsequently, phage ssDNA was precipitated with ethanol and stored as a dry pellet to be used as a PCR template. For the amplification of the unknown peptide sequences, a two-step PCR strategy was followed, as described previously ([32]). The strategy produced an amplicon of ∼330 bp, and each sample contained a unique barcoded sequence. Each sample's DNA concentration was determined by the Agilent 2100 Bioanalyzer using the DNA 1000 kit. Based on the concentration readings for the peak of interest, samples were pooled in equal amounts, purified by the Agencourt AMPure XP kit, and run on a 2% (w/v) agarose gel. The band of ∼330 bp was excised from the gel and purified using the NucleoSpin Gel and PCR Clean-up kit. Finally, the concentration and size of the pooled DNA were measured on a Bioanalyzer. NGPD was carried out once for each round of panning. […]

The test system of test [2] is Panc1 cells. Description: Cell uptake (flow cytometry), Panc1. Format: cell-based, human. To be noted: flow cytometry. On the procedure:
Cells treated with GET-FYLIR or GET-Scrambled were analyzed on an Astrios cell sorter using a 488-nm […] laser (40,000 cells; gated on live cells by forward/side scatter). Gmean was used as the average cell intensity. All data sets were combined for the statistical analysis. A Sidak's multiple comparisons test was applied. N refers to the number of biological replicates.
Background: Flow cytometry measures light scatter and fluorescence of single cells or particles in a stream.

Test [3] deals with Panc1 cells. Description: Cell viability (Presto Blue assay), Panc1. Format: cell-based, human. The note with it: Panc1, up to 10 μM, 24 h, Presto Blue, n=4 biological repeats (Fig. S6). The procedure: Cells were plated in 96-well plates (2.5 × 10^4 cells/well) and treated with GET-FYLIR (0–50 μM) for 24 h. Cells were also treated with GET-Scrambled as a control. After treatment, cells were washed with PBS and then incubated for 15 min at 37 °C with a 100-μl Presto Blue solution (10% Presto Blue, Invitrogen in Hanks' balanced salt solution, Sigma). Change in the fluorescence was measured using a plate reader with the excitation/emission wavelengths set at 560/590 nm (Infinite® 200 PRO, TECAN), with untreated cells used as a control. All data sets were combined for the statistical analysis. A Sidak's multiple comparisons test was applied. N refers to the number of biological replicates.

In test [4] the target is T1, full-length USP11 (FL-USP11) (Homo sapiens, UniProt P51784).
T1 construct: FYLIR peptide (AEGEFYKLKIRTPR) titrated into full-length USP11 (FL-USP11); His tag (inferred from nickel-chelate purification and the pColdI vector); made in house; host or cells: E. coli BL21-CodonPlus (pColdI), grown 72 h at 10 °C
The test can be described thus: Isothermal titration calorimetry, full-length USP11. To be noted: ITC, 30 μM protein in PBS, 25 °C, one site binding model; n=1; read-out: dissociation constant. On the procedure:
(§1) ITC data were measured on a MicroCal VP-ITC or a PEAQ ITC instrument to obtain the binding parameters for peptide ligand–USP11_DU interactions. The sample cell contained 30 μM protein in PBS buffer. Each peptide (at a concentration of 300 or 600 μM) was titrated into the sample cell in 8-μl (VP-ITC) or 2-μl (PEAK ITC) injections at a temperature of 25 °C. Spacing was typically 180 s, and a stirring speed of 300 rpm was used. The data were analyzed using NITPIC ([52]), SEDPHAT ([53]), and GUSSI software. ITC experiments were repeated at least twice independently apart from the USP15_DU, USP4_DU, and the FL-USP11 titrations with FYLIR peptide, which were conducted once.
A general note: In ITC the heat of successive injections is recorded.

The next test deals with USP11_DU^L208F/S242R. Description: Isothermal titration calorimetry, USP11_DU double mutant. Format: binding, human. The note with it: 30 μM protein in PBS, peptide 300 or 600 μM, 25 °C, pocket-deficient double mutant, repeated at least twice. On the procedure:
as §1

No end group written: not given here.

T1 sequence (P51784 44-963 limits assumed): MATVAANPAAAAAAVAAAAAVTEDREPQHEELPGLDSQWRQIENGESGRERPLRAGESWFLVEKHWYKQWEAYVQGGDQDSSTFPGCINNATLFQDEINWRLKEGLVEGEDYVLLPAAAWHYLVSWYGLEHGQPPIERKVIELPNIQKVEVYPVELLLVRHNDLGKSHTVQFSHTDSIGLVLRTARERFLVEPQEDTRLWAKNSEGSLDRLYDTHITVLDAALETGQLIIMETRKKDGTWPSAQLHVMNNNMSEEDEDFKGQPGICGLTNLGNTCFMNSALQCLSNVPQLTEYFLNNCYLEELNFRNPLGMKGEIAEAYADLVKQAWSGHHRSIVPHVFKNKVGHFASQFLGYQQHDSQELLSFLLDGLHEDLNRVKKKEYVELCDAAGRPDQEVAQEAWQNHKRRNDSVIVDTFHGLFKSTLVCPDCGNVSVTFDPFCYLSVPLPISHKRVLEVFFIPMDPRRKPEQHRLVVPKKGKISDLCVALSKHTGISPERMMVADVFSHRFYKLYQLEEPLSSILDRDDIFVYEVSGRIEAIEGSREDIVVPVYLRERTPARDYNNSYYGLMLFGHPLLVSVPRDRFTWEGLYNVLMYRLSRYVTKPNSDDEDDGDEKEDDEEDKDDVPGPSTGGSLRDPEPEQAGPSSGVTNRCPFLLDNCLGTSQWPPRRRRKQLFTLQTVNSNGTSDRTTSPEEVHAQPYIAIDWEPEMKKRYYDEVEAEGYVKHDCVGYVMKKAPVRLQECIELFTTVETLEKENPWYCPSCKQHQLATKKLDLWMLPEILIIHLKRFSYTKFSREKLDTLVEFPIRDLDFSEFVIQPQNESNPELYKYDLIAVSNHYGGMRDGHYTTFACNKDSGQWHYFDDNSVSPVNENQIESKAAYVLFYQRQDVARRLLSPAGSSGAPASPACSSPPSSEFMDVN

On to LELVHRSPV, for which the Z score in test [1] came to 4.1.
On the same count and under the same terms, in the case of LALIKRQPL it was 18.1; in that of HKLKIRTPQ, 5.5.
As to LELLKASRW, the Z score in test [1] is 108.7.
Turning to LESLKASRW, the Z score in test [1] is given as 4.9.
Still for that read-out and setting: under LELLEASRW stands 5.0; under LELVRRSPA, 3.7.
LELVRHSPV gave a Z score in test [1] of 3.0.
Same read-out and setting: under YKPKIRTPQ stands 6.6.
In test [1], LQLLALSRT had a Z score of 70.9.
In test [1], YKLKIRAPQ came in with a Z score of 7.9.
Turning to YRLKIRTPQ, the Z score in test [1] is 5.5.
On the same count and under the same terms, under YKLKIRIPQ stands 4.4; under YELKIRTPQ, 4.6; under YKLKTRTPQ, 4.5.
The same measure, in the same setting: under LEPVRRSPV stands 4.1.
Regarding APKFEIRRGTYKLE [GET-Scrambled], the “uptake profile, NIH3T3 versus Panc1” value with Panc1 cells [2] (1 μM and 5 μM, 1 or 24 h) was “no difference in the uptake profile between NIH3T3 and Panc1 cells”. For the same substance, in the test with Panc1 cells [2] (NIH3T3 and Panc1, 1 and 5 μM), the cellular delivery entry is “efficiently delivered”. For the same substance, the cell viability result with Panc1 cells [3] is on record as “no significant effect”.
In test [1], YKLKIRTPR gave a Z score of 7.1.
With LELLKVSRW, the Z score in test [1] was 3.0.
With LELVRRSPV, the Z score in test [1] amounted to 89.0.
Still for that read-out and setting: in the case of LELVRRSSV it was 3.0; in that of YKLKIRTSQ, 3.6; in that of LELVCRSPV, 2.8.
With LELLKASRR, in test [1], the Z score is 4.8.
On to LELLKALRW, for which, in test [1], the Z score was found to be 3.0.
For NKLKIRTPQ, the Z score in test [1] is listed as 2.8.
Consider YKLKIQTPQ, for which the Z score in test [1] was found to be 4.0.
On to YKLEIRTPQ, for which the Z score in test [1] is recorded as 5.6.
For the substance LELLRASRW, the Z score in test [1] was determined as 4.6.
Same read-out and setting: under LQLLAPSRT stands 3.0; under LALLMRQRP, 19.0.
AEGEFYKLKIRTPR-NH2 [AEGEFYKLKIRTPR]: the Kd in test [4] is around 12.5 µM.
In test [1], PQLLALSRT gave a Z score of 3.9.
The substance YKLKVRTPQ registered a Z score in test [1] of 5.7.
With PELLKASRW, the Z score in test [1] is reported as 3.6.
On the same count and under the same terms, in the case of LGLLKASRW it was 4.4.
As for “AEGEFLRLLNFTKP [peptide harboring motif 2 (LXLL)]”, the “binding by ITC” value in the test with USP11_DU^L208F/S242R was “abolished”.
Substance LELLKAPRW registered a Z score in test [1] of 3.6.
For LELARRSPV, the Z score in test [1] was 4.1.
On to YKLKIRTPL, for which the Z score in test [1] worked out at 3.2.
YKLKIRTLQ registered a Z score in test [1] of 3.7.
Turning to YKLKIRTPQ, the Z score in test [1] is 168.4.
Turning to CKLKIRTPQ, the Z score in test [1] was found to be 5.6.
Take LELPKASRW: in test [1], the Z score is reported as 4.5.
Still for that read-out and setting: in the case of YKLRIRTPQ it was 5.8; in that of LELVRCSPV, 3.2.
In turn, LRLLALSRT gave a Z score in test [1] of 4.4.
In test [1], LQLLALSRA returned a Z score of 3.6.
The same measure, in the same setting: under LAMLTRGRP stands 3.0; under LQLPALSRT, 4.1.
